According to paper PMC10066365, “Nemacol is a small molecule inhibitor of C. elegans vesicular acetylcholine transporter with anthelmintic potential” (Nature Communications, 2023):
Values joined by “and” are separate entries in the source; they are usually repeats but may differ in a detail not shown here. Equal entries are not always repeated.

Key:
[1] = tested on: C. elegans; assay: C. elegans motor phenotype scoring on solid media (Punc/jerky-unc, coiled, paralyzed), wild-type young adults; format: in vivo, Caenorhabditis elegans; conditions: for atypical locomotion (number of animals) / coiled (number of animals) / no phene (number of animals) / paralyzed (number of animals) / any phene: mean % fraction of young adults exhibiting any phenotype (coiled, jerky-Unc or paralyzed) / any phene, mean % fraction of young adults exhibiting any phenotype (coiled, jerky-Unc or paralyzed): one hour; for atypical locomotion (number of animals) / coiled (number of animals) / no phene (number of animals) / paralyzed (number of animals): young adults, 20 animals per trial; for any phene: mean % fraction of young adults exhibiting any phenotype (coiled, jerky-Unc or paralyzed) / any phene, mean % fraction of young adults exhibiting any phenotype (coiled, jerky-Unc or paralyzed): mean of three biological replicates; for EC50: Caenorhabditis elegans, any motor phenotype after 1 h on solid media, ± 95% CI, read-out: C. elegans - motor disruption EC50
[2] = tested on: Dirofilaria immitis L3/L4; assay: Dirofilaria immitis L3/L4 motility assay (DiroImager, 72 h); conditions: Dirofilaria immitis L4
[3] = tested on: Pristionchus pacificus; assay: Pristionchus pacificus motor disruption dose-response on solid media, 1 h; conditions: for EC50: Pristionchus pacificus, 1 h, read-out: P. pacificus motor disruption EC50; for mean % any phene: any phenotype (coiled, jerky-Unc or paralyzed) at one hour; for mean % any phene / mean % any phene (coiled, jerky-Unc or paralyzed): mean of three biological replicates; for rep 1 atypical locomotion / rep 1 coiled / rep 1 no phene / rep 1 paralyzed / rep 2 atypical locomotion / rep 2 coiled / rep 2 no phene / rep 2 paralyzed / rep 3 atypical locomotion / rep 3 coiled / rep 3 no phene / rep 3 paralyzed: count of 20 animals per trial, one hour; for mean % any phene (coiled, jerky-Unc or paralyzed): Pristionchus pacificus young adults
[4] = tested on: Dirofilaria immitis microfilariae; assay: Dirofilaria immitis microfilariae immobility assay (DiroImager, 72 h); conditions: Dirofilaria immitis microfilariae
Procedure: We conducted experiments with the Missouri isolate of Dirofilaria immitis in two labs. In the first set of experiments, shown as part of Fig. 3c, D. immitis microfilariae and larval stage 3 (L3) worms were assayed in the laboratories of Bayer Animal Health GmbH (Monheim, Germany). For microfilariae immobility assays, approximately 250 freshly purified microfilariae were cultured in single wells of a 96-well microtiter plate containing supplemented RPMI 1640 medium[68],[69]. […] Microfilariae exposed to medium substituted with 1% DMSO were used as negative controls. Motility of microfilariae was evaluated after 72 h of drug exposure using an image-based approach—DiroImager, developed by Bayer Technology Services. As described in detail in refs. [68],[69], the DiroImager is an automated high-throughput platform that allows for high-resolution optical imaging of an entire 96-well microtiter plate.

[5] = 3.75uM, single technical replicate
[6] = 15uM, single technical replicate
[7] = 60uM, single technical replicate
[8] = 3.75uM, single replicate counts

Q: How did the “atypical locomotion (number of animals)” value [1, 5] turn out when `FC(F)(F)c1cccc(N2CCN(CC3CCCCC3)CC2)c1` [Nemacol-49] was run?
A: 3 and 2 and 1

Q: What about the “coiled (number of animals)” value [1, 5] of the same compound?
A: 0

Q: And the “no phene (number of animals)” value [1, 5]?
A: 17 and 18 and 19

Q: And the “paralyzed (number of animals)” value [1, 5]?
A: 0

Q: And the “any phene: mean % fraction of young adults exhibiting any phenotype (coiled, jerky-Unc or paralyzed)” value (shortened to “any phene: mean % fraction”) ([1]; 3.75uM)?
A: 9.167%

Q: What about the “atypical locomotion (number of animals)” value [1, 6] of the same compound?
A: 12 and 13 and 9

Q: And the “coiled (number of animals)” value [1, 6]?
A: 3 and 1 and 2 and 0

Q: What about the “no phene (number of animals)” value [1, 6] of the same compound?
A: 5 and 7 and 10 and 8

Q: What about the “paralyzed (number of animals)” value [1, 6] of the same compound?
A: 0

Q: And the “any phene: mean % fraction” value ([1]; 15uM)?
A: 65%

Q: What about the “atypical locomotion (number of animals)” value [1, 7] of the same compound?
A: 13 and 16 and 10 and 14 and 15

Q: And the “coiled (number of animals)” value [1, 7]?
A: 7 and 4 and 10 and 6 and 1 and 3

Q: What about the “no phene (number of animals)” value [1, 7] of the same compound?
A: 0 and 5 and 2

Q: What about the “paralyzed (number of animals)” value [1, 7] of the same compound?
A: 0

Q: And the “any phene: mean % fraction” value ([1]; 60uM)?
A: 94.1667%

Q: What about the EC50 [1] of the same compound?
A: 11.2 ± 1.6 µM

Q: And the “% effect (motility), DIROIM L4” value ([2]; 10 µM)?
A: 0%

Q: What about the “% effect (motility), DIROIM L4” value ([2]; 50 µM) of the same compound?
A: 10%

Q: What about the EC50 [3] of the same compound?
A: > 60 µM

Q: And the “mean % any phene” value ([3]; conc 3.75)?
A: 0%

Q: And the “rep 1 atypical locomotion” value ([3]; conc 3.75)?
A: 0

Q: And the “rep 1 coiled” value ([3]; conc 3.75)?
A: 0

Q: And the “rep 1 no phene” value ([3]; conc 3.75)?
A: 20

Q: And the “rep 1 paralyzed” value ([3]; conc 3.75)?
A: 0

Q: And the “rep 2 atypical locomotion” value ([3]; conc 3.75)?
A: 0

Q: And the “rep 2 coiled” value ([3]; conc 3.75)?
A: 0

Q: What about the “rep 2 no phene” value ([3]; conc 3.75) of the same compound?
A: 20

Q: And the “rep 2 paralyzed” value ([3]; conc 3.75)?
A: 0

Q: And the “rep 3 atypical locomotion” value ([3]; conc 3.75)?
A: 0

Q: What about the “rep 3 coiled” value ([3]; conc 3.75) of the same compound?
A: 0

Q: And the “rep 3 no phene” value ([3]; conc 3.75)?
A: 20

Q: And the “rep 3 paralyzed” value ([3]; conc 3.75)?
A: 0

Q: What about the “mean % any phene” value ([3]; conc 15) of the same compound?
A: 0%

Q: What about the “rep 1 atypical locomotion” value ([3]; conc 15) of the same compound?
A: 0

Q: And the “rep 1 coiled” value ([3]; conc 15)?
A: 0

Q: And the “rep 1 no phene” value ([3]; conc 15)?
A: 20

Q: What about the “rep 1 paralyzed” value ([3]; conc 15) of the same compound?
A: 0

Q: What about the “rep 2 atypical locomotion” value ([3]; conc 15) of the same compound?
A: 0

Q: And the “rep 2 coiled” value ([3]; conc 15)?
A: 0

Q: What about the “rep 2 no phene” value ([3]; conc 15) of the same compound?
A: 20

Q: And the “rep 2 paralyzed” value ([3]; conc 15)?
A: 0

Q: And the “rep 3 atypical locomotion” value ([3]; conc 15)?
A: 0

Q: What about the “rep 3 coiled” value ([3]; conc 15) of the same compound?
A: 0

Q: What about the “rep 3 no phene” value ([3]; conc 15) of the same compound?
A: 20

Q: And the “rep 3 paralyzed” value ([3]; conc 15)?
A: 0

Q: And the “mean % any phene” value ([3]; conc 60)?
A: 12.5%

Q: What about the “rep 1 atypical locomotion” value ([3]; conc 60) of the same compound?
A: 2

Q: And the “rep 1 coiled” value ([3]; conc 60)?
A: 0

Q: And the “rep 1 no phene” value ([3]; conc 60)?
A: 18

Q: And the “rep 1 paralyzed” value ([3]; conc 60)?
A: 0

Q: What about the “rep 2 coiled” value ([3]; conc 60) of the same compound?
A: 0

Q: And the “rep 2 no phene” value ([3]; conc 60)?
A: 17 and 19

Q: What about the “rep 2 paralyzed” value ([3]; conc 60) of the same compound?
A: 0

Q: And the “rep 3 atypical locomotion” value ([3]; conc 60)?
A: 4 and 3

Q: What about the “rep 3 coiled” value ([3]; conc 60) of the same compound?
A: 0

Q: What about the “rep 3 no phene” value ([3]; conc 60) of the same compound?
A: 16 and 17

Q: What about the “rep 3 paralyzed” value ([3]; conc 60) of the same compound?
A: 0

Q: And the “% effect (motility), DIROIM MF” value ([4]; 0.016 µM)?
A: 0%

Q: What about the “% effect (motility), DIROIM MF” value ([4]; 0.08 µM) of the same compound?
A: 0%

Q: And the “% effect (motility), DIROIM MF” value ([4]; 0.4 µM)?
A: 0%

Q: And the “% effect (motility), DIROIM MF” value ([4]; 2 µM)?
A: 0%

Q: What about the “% effect (motility), DIROIM MF” value ([4]; 10 µM) of the same compound?
A: 0%

Q: What does the source list for `O=C(C1CCCCC1)N1CCN(c2ccc([N+](=O)[O-])cc2)CC1` [Nemacol-16]?
A: any phene, mean % fraction of young adults exhibiting any phenotype (coiled, jerky-Unc or paralyzed) ([1]; 3.75uM): 0.8333%; atypical locomotion (number of animals) [1, 8]: 0 and 1; coiled (number of animals) [1, 8]: 0; no phene (number of animals) [1, 8]: 20 and 19; paralyzed (number of animals) [1, 8]: 0; any phene, mean % fraction of young adults exhibiting any phenotype (coiled, jerky-Unc or paralyzed) ([1]; 15uM): 0.8333%; atypical locomotion (number of animals) ([1]; 15uM, single replicate counts): 0; coiled (number of animals) ([1]; 15uM, single replicate counts): 0; no phene (number of animals) ([1]; 15uM, single replicate counts): 20 and 19; paralyzed (number of animals) ([1]; 15uM, single replicate counts): 0 and 1; any phene, mean % fraction of young adults exhibiting any phenotype (coiled, jerky-Unc or paralyzed) ([1]; 60uM): 4.167%; atypical locomotion (number of animals) ([1]; 60uM, single replicate counts): 4 and 1 and 0; coiled (number of animals) ([1]; 60uM, single replicate counts): 0; no phene (number of animals) ([1]; 60uM, single replicate counts): 16 and 19 and 20; paralyzed (number of animals) ([1]; 60uM, single replicate counts): 0; EC50 [1]: > 60 µM; % effect (motility), DIROIM L4 ([2]; 2 µM): 0%; % effect (motility), DIROIM L4 ([2]; 10 µM): 10%; % effect (motility), DIROIM L4 ([2]; 50 µM): 35%; mean % any phene (coiled, jerky-Unc or paralyzed) ([3]; conc 3.75, observed at one hour): 0% and 3.333%; mean % any phene (coiled, jerky-Unc or paralyzed) ([3]; conc 15, observed at one hour): 8.333% and 5%; mean % any phene (coiled, jerky-Unc or paralyzed) ([3]; conc 60, observed at one hour): 36.6667%; EC50 [3]: > 60 µM; % effect (motility), DIROIM MF ([4]; 0.016 µM): 0%; % effect (motility), DIROIM MF ([4]; 0.08 µM): 0%; % effect (motility), DIROIM MF ([4]; 0.4 µM): 0%; % effect (motility), DIROIM MF ([4]; 2 µM): 0%; % effect (motility), DIROIM MF ([4]; 10 µM): 40%
